# Measurements from patent US6495529B1 (Warner-Lambert Company, priority 1998, dated 2002).
# Like-named read-outs stand apart in the source and are kept apart here.
# Experiments:
# [1] = target: α2-receptors; experiment: ALPHA-2 binding, p-125Iodoclonidine, canine brain (frontal cortex) membranes; set-up: species or system dog; conditions: for Kd: radioligand
# Experimental: Membranes of mongrel dogs were harvested from the canine frontal cortex and prepared as described for lung except that the final membrane protein concentration was adjusted to 0.5 mg/ml.
# Nonspecific binding was determined in separate incubations in the presence of 10 μM phentolamine. The final concentration of p-iodoclonidine was 44-45 pM in competition studies and between 50 pM and 10 nM in saturation experiments. Bound and free […] were separated and the bound quantitated as described above for the ICYP assays.
# (§1) All data were analyzed with the aid of microcomputer nonlinear curve fitting programs (PRISM 2.0, Graphpad Software, San Diego Calif.).
# The receptors resident in each of the three membrane preparations were evaluated by standard saturation analysis following the addition of increasing concentrations of the appropriate radioligand.
# The radio ligand added for subsequent α2-displacement assays was adjusted to evaluate only the high affinity receptor. Contributions from p-iodoclonidine binding to imidazoline receptors in the α2-displacement assay were evaluated with epinephrine.
# [2] = target: T1, β2-receptors (Canis lupus familiaris, UniProt P54833); experiment: BETA-2 binding, 125Iodocyanopindolol (ICYP), canine lung membranes; set-up: species or system dog; conditions: radioligand
# T1 construct: The lungs of mongrel dogs were separated from cartilaginous airways and major blood vessels; from tissue; host or cells: mongrel dog lung membranes
# Experimental: (§2) The lungs of mongrel dogs were separated from cartilaginous airways and major blood vessels, weighted, chopped and placed into 10 volumes of ice-cold buffered sucrose (50 mM Tris-HCl pH 7.4, 1 mM EGTA, 0.32 M Sucrose). The tissue was then homogenized in a Polytron tissue homogenizer. The homogenate was filtered through two layers of cheesecloth, and the filtrate was dounced three times using a Con-Turque Potter homogenizer. […] The supernatant was recentrifuged at 30,000×g for 30 min at 4° C. and the resulting pellet was washed and resuspended in 10 volumes of Tris buffer (50 mM Tris HCL, pH 7.4, 1 mM EGTA) and incubated at 37° C. for 30 min in a shaking water bath. The suspension was centrifuged at 4° C., at 30,000×g for 30 min and the resulting pellet washed in 10 volumes of Tris buffer. […] Protein concentration was then determined by the Lowry method and the final suspension was adjusted to 10 mg of protein/ml, aliquoted and stored at −90° C.
# Particulated were also prepared for β2 receptors using the identical procedure except the final protein concentration was adjusted to 0.1 mg/ml.
# Nonspecific binding was determined in separate incubations in the presence of 2 μM dipropranolol. Each experimental point was determined in triplicate. […] Incubations were terminated as described above for the α1 assays. Filters were placed into polyethylene tubes and the bound ligand was determined by gamma spectrometry (Sano et al., 1993).
# as §1
# (§3) The receptors resident in each of the three membrane preparations were evaluated by standard saturation analysis following the addition of increasing concentrations of the appropriate radioligand. […]
# [3] = tested on: Swiss-Webster mice; experiment: Locomotor stimulant and depressant effects in mice; conditions: mice, i.p.; for locomotor depressant effect (in words) / locomotor stimulant effect (in words): 2-hour session
# Experimental: (§4) Male Swiss-Webster mice (HSD ND4, Harlan Sprague Dawley, Houston, Tex.) aged 2-3 months were used in these studies. Each dose group consisted of 8 mice. The mice were housed 2 to 4 per cage in 30.4×22.9×15.2 cm clear polycarbonate cages with food and water available ad libitum for at least one week prior to locomotor activity testing. The colony was maintained at 23±1° C., on a normal light-dark cycle beginning at 0700 hr. All testing took place during the light portion of the light-dark cycle.
# (§5) Horizontal (forward movement) locomotor activity was measured using a standardized, optical activity monitoring system [Model KXYZCM (16), Omnitech Electronics, Columbus, Ohio]. Activity was monitored in forty 40.5×40.5×30.5 cm clear acrylic chambers that where housed in sets of two within larger sound-attenuating chambers. A panel of 16 infrared beams and corresponding photodetectors were spaced 2 cm apart along the sides and 2.4 cm above the floor of each activity chamber. A 7.5-W incandescent light above each chamber provided dim illumination via a rheostat set to 20% of full scale. Fans provided an 80-dB ambient noise level within the chamber.
# (§6) (+)-Amphetamine was used as a positive control. The total horizontal distance traversed (cm) was recorded at 10 minute intervals for a 2-hour session. Separate groups of 8 mice were assigned to each dose or saline group, and dose-effect testing continued for each compound until maximal stimulant or depressant effects could be estimated. A separate control group was tested along with each compound.
# (§7) Using TableCurve 2D v2.03 (Jandel Scientific), the mean average total distance traversed (cm/10 min) for that period was fit to a 3-parameter logistic peak function of log10 dose (with the constant set to the mean of the saline group), and the maximum effect estimated from the resulting curve. The ED50 (dose producing ½ maximal stimulant activity) was estimated from a linear regression against log10 dose of the ascending portion of the dose-effect curve. The stimulant efficacy was the peak effect of the compound (cm/10 min) as estimated from the logistic peak function, minus the mean control distance traveled (cm/10 min), and was expressed for each stimulant compound as a ratio to the stimulant efficacy determined for (+)-amphetamine.
# (§8) The mean average total distance traversed (cm/10 min) for that period were fit to a linear function of log10 dose of the descending portion of the dose-effect curve. […] Efficacy was the ratio of maximal depressant effect to maximum possible depression for each compound (mean average total distance of the control group minus the lowest mean total distance, expressed as a ratio to the control group total distance).
# (§9) Time course data for each compound were considered in 2-way analyses of variance with dose as a between-group and time as a within-group factor. The dose-effect data were considered in 1-way analyses of variance, and planned individual comparisons were conduced between each dose and the saline control group. Interaction studies were considered in 2-way analyses of variance, with Pretreatment and Test dose as the factors.
# [4] = tested on: mongrel dogs; experiment: Intravenous dose increasing mean arterial pressure 10% in anesthetized dogs; conditions: anesthetized dog, i.v.
# [5] = Locomotor stimulant and depressant effects in mice; conditions: male, Swiss-Webster, mouse, in vivo, ip
# Experimental: as §4, §5, §6, §7, §8, §9
# [6] = tested on: New Zealand white rabbits; experiment: Intraocular pressure (IOP) after topical application to rabbit eye; conditions: rabbit; for effect on IOP (in words): topical 1% and 2%, treated eye
# [7] = target: α1-receptors; format: binding, dog; conditions: read-out: Alpha-1 Ki
# Experimental: as §2
# Nonspecific binding was determined for each concentration point in separate incubations, with 10 μM phentolamine. Each experimental point was determined in triplicate. […] All binding assay incubations were terminated by rapid dilution with 2 ml of ice-cold wash buffer (50 mM Tris-HCl, pH 7.4) and filtration through Whatman GF/B filters using Brandel receptor-binding harvester.
# as §1, §3
# [8] = tested on: Swiss-Webster mice; conditions: for modification of stimulant or depressant effects by triprolidine pretreatment: mice pretreated with 0.01, 0.1 or 1.0 mg/kg triprolidine
# [9] = tested on: New Zealand white rabbits; experiment: Pupil diameter / mydriasis after topical application to rabbit eye; conditions: for mydriasis / effect on pupil diameter (in words): topical, rabbit
# [10] = tested on: rats; experiment: Dosage that raised mean arterial pressure 10% in rat; format: in vivo
# [11] = tested on: Sprague Dawley rats; experiment: Nasal airway pressure in normal (non-histamine-challenged) rats; conditions: 100% dose i.v., non-histamine-challenged rats
# [12] = tested on: histamine-challenged rats; experiment: Nasal airway pressure in histamine-challenged rats; conditions: Investigation 1, rats
# [13] = Table 4, no unit in table, IC50 defined in μM, read-out: Alpha-2 IC50
# T1 sequence (P54833 whole entry): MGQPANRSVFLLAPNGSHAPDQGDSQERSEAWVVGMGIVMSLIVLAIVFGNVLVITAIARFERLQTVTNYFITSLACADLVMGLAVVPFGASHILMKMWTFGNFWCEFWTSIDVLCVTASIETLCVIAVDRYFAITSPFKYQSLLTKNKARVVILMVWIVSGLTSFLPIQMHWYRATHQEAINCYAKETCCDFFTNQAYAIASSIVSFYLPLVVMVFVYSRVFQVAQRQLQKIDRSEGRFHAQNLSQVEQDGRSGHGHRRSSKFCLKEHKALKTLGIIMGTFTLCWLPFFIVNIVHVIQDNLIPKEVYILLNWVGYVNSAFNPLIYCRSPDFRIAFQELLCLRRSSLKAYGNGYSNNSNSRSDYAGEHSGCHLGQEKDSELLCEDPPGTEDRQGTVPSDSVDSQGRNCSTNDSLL
smiles,measurement,setting,value
Clc1cc(I)cc(Cl)c1NC1=NCCN1 [p-iodoclonidine],Kd,"[1]; Saturation Analysis, read-out: Kd1 (high affinity)",0.15 nM
same,Kd,"[1]; Saturation Analysis, read-out: Kd2 (low affinity)",3.01 nM
same,Kd,"[1]; Scatchard Analysis, read-out: Kd1 (high affinity)",0.15 nM
same,Kd,"[1]; Scatchard Analysis, read-out: Kd2 (low affinity)",0.87 nM
"CNC[C@H](O)c1ccc(O)c(O)c1 [Epinephrine, epinephrine]",displacement of bound p-iodoclonidine,[1]; check for imidazoline receptor labelling,easily displaced all bound p-iodoclonidine
"CC(C)(C)NCC(O)COc1cccc2[nH]c(C#N)c(I)c12 (stereo not shown) [ICYP, iodocyanopindolol]",Bmax,"[2]; Saturation Analysis, Run 1",149 femtomoles per mg protein
same,Kd,"[2]; Saturation Analysis, Run 1",0.0096 nM
same,Bmax,"[2]; Saturation Analysis, Run 2",142 femtomoles per mg protein
same,Kd,"[2]; Saturation Analysis, Run 2",0.0093 nM
same,Bmax,"[2]; Saturation Analysis, Summary",146 femtomoles per mg protein
same,Kd,"[2]; Saturation Analysis, Summary",0.0095 nM
same,Bmax,"[2]; Scatchard Analysis, Run 1",150 femtomoles per mg protein
same,Kd,"[2]; Scatchard Analysis, Run 1",0.0099 nM
same,Bmax,"[2]; Scatchard Analysis, Run 2",139 femtomoles per mg protein
same,Kd,"[2]; Scatchard Analysis, Run 2",0.0078 nM
same,Bmax,"[2]; Scatchard Analysis, Summary",145 femtomoles per mg protein
same,Kd,"[2]; Scatchard Analysis, Summary",0.0089 nM
CN[C@H](C)[C@@H](O)c1ccccc1 [(+)-ephedrine],"Depression Potency (ID50, dose resulting in ½ the maximal depressant effect)",[3],7.4 mg/kg
same,"Stimulation Potency (ED50, dose resulting in ½ the maximal stimulant effect)",[3],38.2 mg/kg
"CN[C@@H](C)[C@@H](O)c1ccccc1 (single isomer, unassigned) [(+)-pseudoephedrine]",Ki,[1],[…]
same,locomotor depressant effect (in words),[3],some locomotor depression
same,locomotor stimulant effect (in words),[3],"negligible stimulation compared to (−)-ephedrine, but weak stimulation when comared to (+)-amphetamine"
same,ED50 at 30 min,[5],12.6 mg/kg
same,effect on IOP (in words),[6],slight acute elevation in IOP in the treated eye
same,effect on IOP in the contralateral eye (in words),[6]; topical,delayed elevation in IOP
same,reversal of locomotor depression by triprolidine,"[8]; 25, 50 or 100 mg/kg test drug, following 0.01 mg/kg triprolidine",reversed
same,reversal of locomotor depression by triprolidine,[8]; following 1.0 mg/kg triprolidine,no significant reversal
same,modification of stimulant or depressant effects by triprolidine pretreatment,[8],Significant effects for pretreatment with triprolidine
same,mydriasis / effect on pupil diameter (in words),[9],produced mydriasis in the treated eye
Cc1ccc(/C(=C\CN2CCCC2)c2ccccn2)cc1 [triprolidine],"effect on horizontal distance, triprolidine alone","[8]; 0.25 to 25 mg/kg, injected immediately prior to testing, 2-hour test",failed to affect horizontal distance
same,"effect on locomotion, triprolidine alone",[8]; 50 and 100 mg/kg,Dose-dependent depression of locomotion
"CC(N)Cc1ccccc1 (single isomer, unassigned; (+)) [(+)-amphetamine]",locomotor depressant effect (in words),[3],did not cause locomotor depression
same,locomotor stimulant effect (in words),[3],dose- and time-dependent increase in the distance traversed
same,onset of increased locomotion after injection,[3]; (−)-ephedrine: following 50 to 100 mg/kg,≤ 10 min
"CN[C@H](C)[C@H](O)c1ccccc1 (single isomer, unassigned) [(−)-pseudoephedrine]",Ki,[1],[…]
same,"Depression Potency (ID50, dose resulting in ½ the maximal depressant effect)",[3],38.5 mg/kg
same,locomotor depressant effect (in words),[3],some locomotor depression
same,locomotor stimulant effect (in words),[3],"negligible stimulation compared to (−)-ephedrine, but weak stimulation when comared to (+)-amphetamine"
same,ED50 at 30 min,[5],14.6 mg/kg
same,effect on IOP (in words),[6],Little or no increase in intraocular pressure
same,modification of stimulant or depressant effects by triprolidine pretreatment,[8],did not show significant modification of stimulant or depressant effects
same,mydriasis / effect on pupil diameter (in words),[9],produced mydriasis in the treated eye only
same,decongestant activity (in words),[12],"as good as, or superior to, several commercially available decongestants"
